Measured values published in patent US12534450B2, “Methods and compositions for targeting PD-L1” (Aligos Therapeutics, Inc., priority 2021, dated 2026).

Tests used:
[1] = target: PD-1/PD-L1 PPI (Homo sapiens, UniProt Q9NZQ7); test: PDL1/PD1 Binding Assay; details: PDL1-6×His 0.3 nM, PD1-Fc-Avi-Biotin 2.5 nM, Acceptor/Donor beads, Envision reader
Summary of the method: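 AlphaScreen competition: compound (1% DMSO) preincubated 30 min RT with PDL1-6×His (0.3 nM), then PD1-Fc-Avi-Biotin (2.5 nM) 30 min; anti-His acceptor and streptavidin donor beads (20 ug/mL each) added, 1 h each, dark up to overnight. Buffer 25 mM Hepes pH 7.4, 150 mM NaCl. IC50 by four-parameter fit.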

[2] = system: PD-1/PD-L1 interaction; test: PD-1/PD-L1 NFAT Reporter Assay (co-culture of Jurkat T cells overexpressing PD-1 and PD-L1 expressing CHO cells); format: cell-based; details: co-culture 6 hrs at 37° C., NFAT-mediated luciferase activity
Summary of the method: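 Compounds added to CHO cells expressing surface anti-CD3 and PD-L1, then Jurkat cells with PD-1 and NFAT-driven luciferase seeded on top; co-culture 6 hrs at 37° C. Luminescence read after ONE-Glo addition, EC50 from dose-response fit.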

Chain of PD-1/PD-L1 PPI (Q9NZQ7 19-238 limits assumed): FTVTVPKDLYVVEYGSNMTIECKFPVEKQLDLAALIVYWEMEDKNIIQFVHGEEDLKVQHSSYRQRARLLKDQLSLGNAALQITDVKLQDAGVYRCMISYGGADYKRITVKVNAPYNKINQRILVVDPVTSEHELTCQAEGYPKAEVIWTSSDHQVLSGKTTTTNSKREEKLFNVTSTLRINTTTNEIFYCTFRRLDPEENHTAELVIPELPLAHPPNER

IC50 [1] | EC50 ([2]; Homo sapiens, Jurkat, 6 h) | EC50 [2] | SMILES
≤ 10 nM | 10 to 100 nM |  | COc1nc(-c2cccc(-c3cccc(NC(=O)c4cn(C)c(=O)n(C)c4=O)c3C)c2F)cc2c1[C@@H](N[C@@H]1CCOC[C@@H]1O)CC2 (single isomer, unassigned) [Compound A-42]
≤ 10 nM | 100 to 1000 nM |  | COc1nc(-c2cccc(-c3cccc(NC(=O)c4cn(C)c(=O)n(C)c4=O)c3C)c2Cl)cc2c1C(NC[C@@H]1CCC(=O)N1)CC2C (stereo partly shown) [Compound A-122]
10 to 100 nM | > 5000 nM |  | COc1nc(-c2cccc(-c3cccc(NC(=O)c4cn(C)c(=O)n(C)c4=O)c3C)c2C)cc2c1[C@@H](N1CC(O)C1)CC2 (single isomer, unassigned) [Compound A-79]
≤ 10 nM | ≤ 10 nM |  | COc1nc(-c2cccc(-c3cccc(NC(=O)c4cn(C)c(=O)n(C)c4=O)c3Cl)c2F)cc2c1[C@@H](NC[C@@H]1CCC(=O)N1)CC2 [Compound A-7]
≤ 10 nM | 10 to 100 nM |  | COc1nc(-c2cccc(-c3cccc(NC(=O)c4cn(C)c(=O)n(C)c4=O)c3Cl)c2Cl)cc2c1C(NCCO)CC2 [Compound D-5]
≤ 10 nM | ≤ 10 nM |  | COc1nc(-c2cccc(-c3cccc(NC(=O)c4cn(C)c(=O)n(C)c4=O)c3Cl)c2Cl)cc2c1[C@@H](N1CC3(CNC(=O)C3)C1)CC2 (single isomer, unassigned) [Compound A-129]
≤ 10 nM | ≤ 10 nM |  | COc1nc(-c2cccc(-c3cccc(NC(=O)c4nn(C)c(=O)n(C)c4=O)c3C)c2Cl)cc2c1[C@@H](NC[C@@H]1CCC(=O)N1)CC2 [Compound A-58]
≤ 10 nM | ≤ 10 nM |  | COc1nc(-c2cccc(-c3cccc(NC(=O)c4c[nH]c(=O)n(C)c4=O)c3C)c2Cl)cc2c1[C@@H](NC[C@@H]1CCC(=O)N1)CC2 [Compound A-55]
≤ 10 nM | ≤ 10 nM |  | COc1nc(-c2cccc(-c3cccc(NC(=O)c4nn(C)c(=O)n(C)c4=O)c3Cl)c2Cl)cc2c1[C@H](N[C@@H]1COC[C@H]1O)CC2 (single isomer, unassigned) [Compound A-100]
≤ 10 nM | 10 to 100 nM |  | COc1nc(-c2cccc(-c3cccc(NC(=O)c4cn(C)c(=O)n(C)c4=O)c3C)c2Cl)cc2c1[C@H](N1CC3(CN(C(C)=O)C3)C1)CC2 (single isomer, unassigned) [Compound A-72]
≤ 10 nM | 10 to 100 nM |  | COc1nc(-c2cccc(-c3cccc(NC(=O)c4cn(C)c(=O)n(C)c4=O)c3Cl)c2Cl)cc2c1C(N1CC3(CNC(=O)C3)C1)CC2 (single isomer, unassigned) [Compound A-130]
≤ 10 nM | 100 to 1000 nM |  | COc1nc(-c2cccc(-c3cccc(NC(=O)c4nn(C)c(=O)n(C)c4=O)c3Cl)c2Cl)cc2c1[C@@H](N[C@@H]1COC[C@H]1O)CC2 (single isomer, unassigned) [Compound A-99]
≤ 10 nM | ≤ 10 nM |  | COc1nc(-c2cccc(-c3cccc(NC(=O)c4cn(C)c(=O)n(C)c4=O)c3Cl)c2Cl)cc2c1C(N1CC3(CCNC3=O)C1)CC2 [Compound D-3]
10 to 100 nM | 10 to 100 nM |  | COc1nc(-c2cccc(-c3cccc(NC(=O)c4cn(C)c(=O)n(C)c4=O)c3C)c2C)cc2c1[C@@H](N[C@@H]1COC[C@@H]1O)CC2 (single isomer, unassigned) [Compound A-105]
≤ 10 nM | 1000 to 10000 nM |  | COc1nc(-c2cccc(-c3cccc(NC(=O)c4cn(C)c(=O)n(C)c4=O)c3Cl)c2C)cc2c1[C@H](N[C@@H]1CCOC[C@@H]1O)CC2 (single isomer, unassigned) [Compound A-31]
≤ 10 nM | 10 to 100 nM |  | COc1nc(-c2cccc(-c3cccc(NC(=O)c4cn(C)c(=O)n(C)c4=O)c3C)c2Cl)cc2c1C(NC1COC1)CC2 [Compound D-10]
≤ 10 nM | ≤ 10 nM |  | COc1nc(-c2cccc(-c3cccc(NC(=O)c4ccnn(C)c4=O)c3C)c2Cl)cc2c1[C@@H](NC[C@@H]1CCC(=O)N1)CC2 [Compound A-47]
≤ 10 nM | 10 to 100 nM |  | COc1nc(-c2cccc(-c3cccc(NC(=O)c4c[nH]c(=O)[nH]c4=O)c3C)c2Cl)cc2c1[C@@H](NC[C@@H]1CCC(=O)N1)CC2 [Compound A-54]
≤ 10 nM | ≤ 10 nM |  | COc1nc(-c2cccc(-c3cccc(NC(=O)c4ccnn(C)c4=O)c3Cl)c2Cl)cc2c1[C@@H](NC[C@@H]1CCC(=O)N1)CC2 [Compound A-43]
10 to 100 nM | > 5000 nM |  | COc1nc(-c2cccc(-c3cccc(NC(=O)c4cn(C)c(=O)n(C)c4=O)c3C)c2C)cc2c1[C@H](N1CC(OC)C1)CC2 (single isomer, unassigned) [Compound A-84]
≤ 10 nM | ≤ 10 nM |  | COc1nc(-c2cccc(-c3cc(F)cc(NC(=O)c4cn(C)c(=O)n(C)c4=O)c3Cl)c2Cl)cc2c1[C@@H](NC[C@@H]1CCC(=O)N1)CC2 [Compound A-65]

IC50 [1] | EC50 ([2]; Homo sapiens, Jurkat, 6 h) | EC50 [2] | SMILES
≤ 10 nM | 10 to 100 nM |  | COc1nc(-c2cccc(-c3cccc(NC(=O)c4cn(C)c(=O)n(C)c4=O)c3Cl)c2Cl)cc2c1C(N1CC3(CNC(=O)O3)C1)CC2 [Compound D-15]
≤ 10 nM | 10 to 100 nM |  | COc1nc(-c2c(F)ccc(-c3cccc(NC(=O)c4cn(C)c(=O)n(C)c4=O)c3C)c2F)cc2c1[C@@H](NC[C@@H]1CCC(=O)N1)CC2 [Compound A-70]
≤ 10 nM | 10 to 100 nM |  | CCOC(=O)C1CN([C@H]2CCc3cc(-c4cccc(-c5cccc(NC(=O)c6ccnn(C)c6=O)c5Cl)c4Cl)nc(OC)c32)C1 (single isomer, unassigned) [Compound A-87]
≤ 10 nM |  | 100 to 1000 nM | COc1nc(-c2cccc(-c3cccc(NC(=O)c4cn(C)c(=O)n(C)c4=O)c3C)c2Cl)cc2c1[C@@H](N1CC3(CNC(=O)C3)C1)CC2 (single isomer, unassigned) [Compound A-132]
≤ 10 nM | ≤ 10 nM |  | COc1nc(-c2cccc(-c3cccc(NC(=O)c4cn(C)c(=O)n(C)c4=O)c3Cl)c2Cl)cc2c1C(N1CC(OC)C1)CC2 [Compound D-1]
≤ 10 nM | ≤ 10 nM |  | COc1nc(-c2cccc(-c3cc(F)cc(NC(=O)c4ccnn(C)c4=O)c3C)c2Cl)cc2c1[C@@H](NC[C@@H]1CCC(=O)N1)CC2 [Compound A-63]
≤ 10 nM | ≤ 10 nM |  | COc1nc(-c2cccc(-c3cccc(NC(=O)c4ccnn(C)c4=O)c3Cl)c2Cl)cc2c1C(N1CC(C(=O)O)C1)CC2 (single isomer, unassigned) [Compound J-1]
10 to 100 nM | 1000 to 10000 nM |  | COc1nc(-c2cccc(-c3cccc(NC(=O)c4cn(C)c(=O)n(C)c4=O)c3C)c2C)cc2c1[C@@H](N[C@@H]1CCOC[C@H]1O)CC2 (single isomer, unassigned) [Compound A-89]
≤ 10 nM | 100 to 1000 nM |  | COc1nc(-c2cccc(-c3cccc(NC(=O)c4cn(C)c(=O)n(C)c4=O)c3Cl)c2Cl)cc2c1C(N1CCC3(CN(C(=O)OC(C)(C)C)C3)C1)CC2 (stereo not shown) [Compound A-119]
≤ 10 nM | 100 to 1000 nM |  | COc1nc(-c2cccc(-c3cccc(NC(=O)c4cn(C)c(=O)n(C)c4=O)c3F)c2F)cc2c1[C@H](NC[C@@H]1CCC(=O)N1)CC2 [Compound A-17]
≤ 10 nM | ≤ 10 nM |  | COc1nc(-c2cccc(-c3cccc(NC(=O)c4nn(C)c(=O)n(C)c4=O)c3C)c2Cl)cc2c1[C@H](N[C@@H]1COC[C@H]1O)CC2 (single isomer, unassigned) [Compound A-102]
≤ 10 nM | > 10000 nM |  | CCCCOC(=O)N(C[C@@H]1CCC(=O)N1)[C@H]1CCc2cc(-c3cccc(-c4cccc(NC(=O)c5cn(C)c(=O)n(C)c5=O)c4C)c3Cl)nc(OC)c21 [Compound E-2]
≤ 10 nM | 10 to 100 nM |  | COc1nc(-c2cccc(-c3cccc(NC(=O)c4cn(C)c(=O)n(C)c4=O)c3Cl)c2Cl)cc2c1C(N[C@@H]1CCOC[C@H]1O)CC2 (stereo partly drawn) [Compound D-6]
≤ 10 nM | > 5000 nM |  | COc1nc(-c2cccc(-c3cccc(NC(=O)c4nn(C)c(=O)n(C)c4=O)c3C)c2Cl)cc2c1[C@@H](N[C@@H]1COC[C@H]1O)CC2 (single isomer, unassigned) [Compound A-101]
≤ 10 nM |  | ≤ 10 nM | COc1nc(-c2cccc(-c3cccc(NC(=O)c4cn(C)c(=O)n(C)c4=O)c3C)c2Cl)cc2c1[C@@H](N1CC3(CNC(=O)C3)C1)CC2 (single isomer, unassigned) [Compound A-131]
≤ 10 nM | 100 to 1000 nM |  | COc1nc(-c2cccc(-c3cccc(NC(=O)c4cn(C)c(=O)n(C)c4=O)c3C)c2C)cc2c1[C@H](N[C@@H]1COC[C@@H]1O)CC2 (single isomer, unassigned) [Compound A-106]
10 to 100 nM | 1000 to 10000 nM |  | COc1nc(-c2cccc(-c3cccc(NC(=O)c4cn(C)c(=O)n(C)c4=O)c3C)c2C)cc2c1[C@@H](N[C@@H]1COC[C@H]1O)CC2 (single isomer, unassigned) [Compound A-97]
≤ 10 nM | 10 to 100 nM |  | COc1nc(-c2cccc(-c3cccc(NC(=O)c4nn(C)c(=O)n(C)c4=O)c3C)c2C)cc2c1[C@H](N[C@@H]1CCOC[C@H]1O)CC2 (single isomer, unassigned) [Compound A-92]
≤ 10 nM | ≤ 10 nM |  | COc1nc(-c2cccc(-c3cccc(NC(=O)c4cn(C)c(=O)n(C)c4=O)c3C#N)c2Cl)cc2c1[C@@H](NC[C@@H]1CCC(=O)N1)CC2 [Compound A-57]
≤ 10 nM | 100 to 1000 nM |  | COc1nc(-c2cccc(-c3cccc(NC(=O)c4nn(C)c(=O)n(C)c4=O)c3C)c2Cl)cc2c1[C@H](N[C@@H]1COC[C@@H]1O)CC2 (single isomer, unassigned) [Compound A-110]
